Data on four molecules can be found in patent US9593122B2, “Substituted pyrazolylpyrazole derivative and use of same as herbicide” (KYOYU AGRI CO., LTD., priority 2013, dated 2017).

SMILES strings stand for the structures.

What all share (format): in vivo
The test system of one data set is Echinochloa crus-galli. The data set is described as follows: Paddy herbicidal activity test. The settings on record: irrigated paddy pot, treated at 3.5 leaf stage of Echinochloa crus-galli, 30 days. The essentials:
(§1)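 Flooded paddy-soil pots (3 cm water) were sown with Echinochloa, Monochoria and Scirpus, and rice at the 2.0-leaf stage was transplanted. Diluted wettable powder was dripped in per are at weed 3.5-leaf stage. After 30 days in a greenhouse (~30 °C), growth inhibition versus untreated plants was scored on an 11-level scale.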

Another data set deals with Monochoria vaginalis. Kind of data set: Paddy herbicidal activity test. Particulars: irrigated paddy pot, 30 days. The essentials: as §1
The next data set has as its system Scirpus juncoides. The data set is described as follows: Paddy herbicidal activity test. The settings on record: irrigated paddy pot, 30 days. The essentials: as §1
The subject of a further data set is Rice plants. Kind of data set: Paddy herbicidal activity test, phytotoxicity to transplanted rice. Particulars: rice transplanted at 2.0 leaf stage, 30 days. On the procedure: Rice paddy soil was filled into a 1/10000 are pot followed by the addition of suitable amounts of water and chemical fertilizer, kneading, seeding with Echinochloa crus-galli, Monochoria vaginalis and Scirpus juncoides and maintaining in an irrigated state at a water depth of 3 cm.
Wettable powder of Target Compound (I) shown in Table 1 prepared in compliance with the preparation examples were diluted with a suitable amount of water, rice plants in the 2.0 leaf stage were transplanted during 3.5 leaf stage of Echinochloa crus-galli, and treated by dropping in chemical in the prescribed amount per are using a pipette.
(§2) After treating for 30 days in a glass greenhouse at an average atmospheric temperature of 30° C., the herbicidal efficacy thereof was investigated.
Evaluation of herbicidal efficacy was carried out by comparing growth inhibition rate (%) with an untreated group, while evaluation of phytotoxicity was carried out by comparing growth inhibition rate (%) with the state of a complete eradication group, and were evaluated at 11 levels indicated below.

Data set [1] concerns Amaranthus retroflexus. Kind of data set: Farming soil treatment test. Particulars: soil surface spray prior to weed growth, 30 days. On the procedure: (§3) Field soil was filled into a 1/6000 are pot followed by seeding with Digitaria ciliaris, Chenopodium album and Amaranthus retroflexus and covering with soil.
(§4) Wettable powder of compounds of formula (I) shown in Table 1 prepared in compliance with the preparation examples were diluted with water to the prescribed amount of chemical and uniformly sprayed onto each soil surface layer using 10 liters of sprayed water per are prior to weed growth following seeding.
as §2
(§5) Evaluation of herbicidal efficacy is carried out in the same manner as the above-mentioned Test Example 1.

Data set [2] relates to Chenopodium album. Kind of data set: Farming soil treatment test. The settings on record: soil surface spray prior to weed growth, 30 days. On the procedure: as §3, §4, §2, §5
For data set [3], the system named is Digitaria ciliaris. The data set is described as follows: Farming soil treatment test. Particulars: soil surface spray prior to weed growth, 30 days. On the procedure: as §3, §4, §2, §5
Data set [4] concerns Amaranthus retroflexus. Kind of data set: Weed foliar treatment test. The settings on record: foliar spray, 3 weeks. On the procedure: (§6) Soil was filled into a 1/6000 are pot followed by seeding with Digitaria ciliaris, Chenopodium album and Amaranthus retroflexus, covering with soil, and cultivating in a glass greenhouse at an average atmospheric temperature of 25° C.
(§7) Wettable powder of Target Compound (I) shown in Table 1 prepared in compliance with the preparation examples were diluted with water to the prescribed amount of chemical and uniformly sprayed onto the weeds using 15 liters of sprayed water per are when Digitaria ciliaris had grown to the 1.0 to 2.0 leaf stage.
(§8) After treating for 3 weeks in a glass greenhouse at an average atmospheric temperature of 25° C., the herbicidal efficacy thereof was investigated.
(§9) Evaluation of herbicidal efficacy was carried out in the same manner as the above-mentioned Test Example 1.

Data set [5] deals with Chenopodium album. The data set is described as follows: Weed foliar treatment test. The settings on record: foliar spray, 3 weeks. On the procedure: as §6, §7, §8, §9
Data set [6] relates to Digitaria ciliaris. Kind of data set: Weed foliar treatment test. The settings on record: foliar spray at 1.0 to 2.0 leaf stage of Digitaria ciliaris, 3 weeks. The procedure:
as §6, §7, §8, §9

As for `C=C(Cl)CN(C(=O)C(F)(F)F)c1c(C#N)cnn1-c1nn2c(c1Cl)CCCC2` [Compound 3, (N-1-(3-chloro-4,5,6,7-tetrahydropyrazolo[1,5-a]pyridin-2-yl)-4-cyanopyrazol-5-yl)-N-(2-chloroprop-2-enyl)-2,2,2-trifluoroacetamide], the “Echinochloa crus-galli herbicidal efficacy (growth inhibition level)” value was 9 (9: 90% to less than 100%) in the data set with Echinochloa crus-galli (1g a.i./10a) and 10 (10: 100%) in the data set with Echinochloa crus-galli (5g a.i./10a). In addition, the “Monochoria vaginalis herbicidal efficacy (growth inhibition level)” value in the data set with Monochoria vaginalis (1g a.i./10a) and in the data set on Monochoria vaginalis (5g a.i./10a) was 9 (9: 90% to less than 100%) each time. Further, the “Scirpus juncoides herbicidal efficacy (growth inhibition level)” value in the data set with Scirpus juncoides (1g a.i./10a) is reported as 7 (7: 70% to less than 80%); in the data set on Scirpus juncoides (5g a.i./10a), 8 (8: 80% to less than 90%). Also, the “Rice plants phytotoxicity (growth inhibition level)” value with Rice plants (1g a.i./10a) and in the data set with Rice plants (5g a.i./10a) was 0 (0 (exponent): 0% to less than 10% (growth inhibition rate)) each time. The “Amaranthus retroflexus herbicidal efficacy (growth inhibition level)” value in the data set with Amaranthus retroflexus [1] (5g a.i./10a), in the data set on Amaranthus retroflexus [1] (10g a.i./10a), in the data set with Amaranthus retroflexus [4] (5g a.i./10a) and with Amaranthus retroflexus [4] (10g a.i./10a) was 10 (10: 100%) each time. For the same molecule, the “Chenopodium album herbicidal efficacy (growth inhibition level)” value with Chenopodium album [2] (5g a.i./10a), in the data set with Chenopodium album [2] (10g a.i./10a), in the data set on Chenopodium album [5] (5g a.i./10a) and in the data set with Chenopodium album [5] (10g a.i./10a) was 10 (10: 100%) throughout. In addition, the “Digitaria ciliaris herbicidal efficacy (growth inhibition level)” value in the data set with Digitaria ciliaris [3] (5g a.i./10a), in the data set on Digitaria ciliaris [3] (10g a.i./10a), in the data set with Digitaria ciliaris [6] (5g a.i./10a) and in the data set on Digitaria ciliaris [6] (10g a.i./10a) was 10 (10: 100%) in each case.
`O=[N+]([O-])c1cnn(-c2nn3c(c2Cl)CCCC3)c1NC/C=C\Cl` [Compound 32]: the entries for the “Echinochloa crus-galli herbicidal efficacy (growth inhibition level)” value in the data set on Echinochloa crus-galli (1g a.i./10a) and in the data set with Echinochloa crus-galli (5g a.i./10a) were 8 (8: 80% to less than 90%) and 9 (9: 90% to less than 100%), respectively. Further, the “Monochoria vaginalis herbicidal efficacy (growth inhibition level)” value in the data set on Monochoria vaginalis (1g a.i./10a) is listed as 9 (9: 90% to less than 100%); in the data set on Monochoria vaginalis (5g a.i./10a), 10 (10: 100%). In addition, the “Scirpus juncoides herbicidal efficacy (growth inhibition level)” value in the data set on Scirpus juncoides (1g a.i./10a) is given as 8 (8: 80% to less than 90%); in the data set with Scirpus juncoides (5g a.i./10a), 10 (10: 100%). Also, the “Amaranthus retroflexus herbicidal efficacy (growth inhibition level)” value in the data set with Amaranthus retroflexus [1] (5g a.i./10a), with Amaranthus retroflexus [1] (10g a.i./10a), with Amaranthus retroflexus [4] (5g a.i./10a) and in the data set with Amaranthus retroflexus [4] (10g a.i./10a) was 10 (10: 100%) each time. In addition, the “Chenopodium album herbicidal efficacy (growth inhibition level)” value with Chenopodium album [2] (5g a.i./10a), with Chenopodium album [5] (5g a.i./10a) and with Chenopodium album [5] (10g a.i./10a) was 10 (10: 100%) in each case. Moreover, the “Digitaria ciliaris herbicidal efficacy (growth inhibition level)” value in the data set with Digitaria ciliaris [3] (5g a.i./10a), in the data set on Digitaria ciliaris [3] (10g a.i./10a), in the data set with Digitaria ciliaris [6] (5g a.i./10a) and in the data set on Digitaria ciliaris [6] (10g a.i./10a) was 10 (10: 100%) throughout.
For `C=CCNc1c(C#N)cnn1-c1nn2c(c1Cl)CCCC2` [Control agent 4.59, reference compound], the results for the “Echinochloa crus-galli herbicidal efficacy (growth inhibition level)” value in the data set with Echinochloa crus-galli (1g a.i./10a) and in the data set with Echinochloa crus-galli (5g a.i./10a) were 2 (2: 20% to less than 30%) and 5 (5: 50% to less than 60%), respectively. Further, the results for the “Monochoria vaginalis herbicidal efficacy (growth inhibition level)” value in the data set on Monochoria vaginalis (1g a.i./10a) and in the data set with Monochoria vaginalis (5g a.i./10a) were 2 (2: 20% to less than 30%) and 4 (4: 40% to less than 50%), respectively. Also, the entries for the “Scirpus juncoides herbicidal efficacy (growth inhibition level)” value in the data set with Scirpus juncoides (1g a.i./10a) and in the data set with Scirpus juncoides (5g a.i./10a) were 2 (2: 20% to less than 30%) and 4 (4: 40% to less than 50%), respectively. For the same molecule, the “Rice plants phytotoxicity (growth inhibition level)” value was 1 (1: 10% to less than 20%) with Rice plants (1g a.i./10a) and 2 (2: 20% to less than 30%) in the data set on Rice plants (5g a.i./10a). Moreover, the “Amaranthus retroflexus herbicidal efficacy (growth inhibition level)” value is listed as 5 (5: 50% to less than 60%) with Amaranthus retroflexus [1] (5g a.i./10a), 6 (6: 60% to less than 70%) in the data set with Amaranthus retroflexus [1] (10g a.i./10a), 6 (6: 60% to less than 70%) in the data set on Amaranthus retroflexus [4] (5g a.i./10a) and 7 (7: 70% to less than 80%) with Amaranthus retroflexus [4] (10g a.i./10a). In addition, the “Chenopodium album herbicidal efficacy (growth inhibition level)” value is 5 (5: 50% to less than 60%) in the data set on Chenopodium album [2] (5g a.i./10a), 6 (6: 60% to less than 70%) with Chenopodium album [2] (10g a.i./10a), 6 (6: 60% to less than 70%) with Chenopodium album [5] (5g a.i./10a) and 7 (7: 70% to less than 80%) in the data set with Chenopodium album [5] (10g a.i./10a). Moreover, the “Digitaria ciliaris herbicidal efficacy (growth inhibition level)” value is 5 (5: 50% to less than 60%) with Digitaria ciliaris [3] (5g a.i./10a), 6 (6: 60% to less than 70%) in the data set on Digitaria ciliaris [3] (10g a.i./10a), 4 (4: 40% to less than 50%) in the data set with Digitaria ciliaris [6] (5g a.i./10a) and 6 (6: 60% to less than 70%) with Digitaria ciliaris [6] (10g a.i./10a).
For the molecule `C=CCN(CC)c1c(C#N)cnn1-c1nn2c(c1Cl)CCCC2` [Control agent 4.75, reference compound], the “Echinochloa crus-galli herbicidal efficacy (growth inhibition level)” value is listed as 3 (3: 30% to less than 40%) with Echinochloa crus-galli (1g a.i./10a) and 4 (4: 40% to less than 50%) with Echinochloa crus-galli (5g a.i./10a). For the same molecule, the “Monochoria vaginalis herbicidal efficacy (growth inhibition level)” value in the data set with Monochoria vaginalis (1g a.i./10a) is 4 (4: 40% to less than 50%); in the data set with Monochoria vaginalis (5g a.i./10a) it was 5 (5: 50% to less than 60%). In addition, the “Scirpus juncoides herbicidal efficacy (growth inhibition level)” value with Scirpus juncoides (1g a.i./10a) and in the data set on Scirpus juncoides (5g a.i./10a) was 2 (2: 20% to less than 30%) throughout. Further, the “Rice plants phytotoxicity (growth inhibition level)” value in the data set with Rice plants (1g a.i./10a) is on record as 0 (0 (exponent): 0% to less than 10% (growth inhibition rate)); in the data set on Rice plants (5g a.i./10a), 1 (1: 10% to less than 20%). The “Amaranthus retroflexus herbicidal efficacy (growth inhibition level)” value in the data set with Amaranthus retroflexus [1] (5g a.i./10a) was 6 (6: 60% to less than 70%); in the data set with Amaranthus retroflexus [1] (10g a.i./10a), 6 (6: 60% to less than 70%); in the data set with Amaranthus retroflexus [4] (5g a.i./10a) it was 5 (5: 50% to less than 60%); in the data set on Amaranthus retroflexus [4] (10g a.i./10a), 7 (7: 70% to less than 80%). In addition, the “Chenopodium album herbicidal efficacy (growth inhibition level)” value in the data set on Chenopodium album [2] (5g a.i./10a) is 5 (5: 50% to less than 60%); with Chenopodium album [2] (10g a.i./10a), 6 (6: 60% to less than 70%); in the data set with Chenopodium album [5] (5g a.i./10a), 6 (6: 60% to less than 70%); with Chenopodium album [5] (10g a.i./10a) it was 7 (7: 70% to less than 80%). The “Digitaria ciliaris herbicidal efficacy (growth inhibition level)” value with Digitaria ciliaris [3] (5g a.i./10a) is 3 (3: 30% to less than 40%); with Digitaria ciliaris [3] (10g a.i./10a) it was 4 (4: 40% to less than 50%); in the data set with Digitaria ciliaris [6] (5g a.i./10a) it was 4 (4: 40% to less than 50%); with Digitaria ciliaris [6] (10g a.i./10a) it was 5 (5: 50% to less than 60%).
